In patent US9907852B2, “Anticancer agent and side-effect-alleviating agent” (National University Corporation University of Toyama, priority 2014, dated 2018):

How the values were obtained:
[1] = test system: Human pancreatic cancer cell Suit 2; assay: Tumor size in mice transplanted subcutaneously with Suit 2 (Test Example 1); format: in vivo; settings: after 4 weeks from the starting of treatment; extract 0.5% (w/w) in feed, bevacizumab 5 mg/kg i.p. once a week, gemcitabine 100 mg/kg i.p. twice a week
Experimental: (§1) Human pancreatic cancer cell Suit 2 (1×10^6 cells) was transplanted subcutaneously to BALB/cAJc1-nu/nu mice (CLEA Japan, Inc.) . On 21th day after the transplantation, the transplanted mice were divided into 4 groups, that is, (a) an untreated group, (b) a group to which a Burdock Fruit extract was administered, (c) a group to which bevacizumab was administered, and (d) a group to which gemcitabine was administered, and the treatment was continued for 4 weeks. The Burdock Fruit extract of Example 1 was mixed into feed at a rate of 0.5% (w/w) and the resultant was given to mice. The ingestion of feed was 3 to 5 g a day for a mouse, from which the intake of arctigenin was calculated as […]. Bevacizumab, as Avastin 100 mg/4 ml for intravenous injection (Chugai Pharm. Co.) , was intraperitoneally injected at a dose of 5 mg/kg once a week. As gemcitabine, an intravenous drip preparation of gemcitabine (Eli Lilly and Co.) was intraperitoneally injected at a dose of 100 mg/kg twice a week.
The average tumor size after 4 weeks from the starting of treatment in the respective groups was as follows: (a) 228 mm^2 in the untreated group; (b) 189 mm^2 in the Burdock Fruit extract administered group; (c) 56 mm^2 in the bevacizumab administered group to which was; and (d) 68 mm^2 in the gemcitabine administered group.

[2] = test system: Human pancreatic cancer cell Suit 2; assay: Uptake of gadolinium DTPA in tumor tissue by MRI, blood stream in tumor (Test Example 1); format: in vivo, mice; settings: after intravenous injection of gadolinium DTPA; after 4 weeks of treatment
Experimental: as §1
After 4 weeks from the starting of treatment, the uptake of gadolinium DTPA in the mouse tumor tissue was evaluated in the respective groups. […] From this photograph the signal intensity of gadolinium DTPA in the tumor tissue was measured. […]

[3] = test system: Human pancreatic cancer cells Miapaca-2; assay: Tumor weight in mice transplanted subcutaneously with Miapaca-2 (Test Example 3); format: in vivo; settings: after 4 weeks; extract 250 mg/kg oral 5 times a week, gemcitabine 150 mg/kg i.p. twice a week
Experimental: Human pancreatic cancer cells Miapaca-2 (ATCC CRL 1420) (5×10^6 cells/200 μl) were transplanted subcutaneously under the armpit of BALB/cAJcl nu/nu mice (CLEA Japan, Inc.) . After feeding for about 2-3 weeks, those of which cancer grew to about 100 mm^3 were selected and employed as the subject mice to be treated. The subject mice of treatment were divided into 4 groups, that is, (a) an untreated group, (b) a group administered gemcitabine, (c) a group administered a Burdock Fruit extract, and (d) a group administered in combination with a Burdock Fruit extract and gemcitabine (combined administration group), and the treatment was continued for 4 weeks. […] After termination of the therapeutic test, the tumor weight was measured in the respective groups.

[4] = test system: Human pancreatic cancer cells Miapaca-2; assay: Proportion of the cancer stem cells in tumor by flow cytometry, Miapaca-2 (Test Example 3); format: in vivo, mice; settings: after the therapeutic test (4 weeks)
Experimental: Human pancreatic cancer cells Miapaca-2 (ATCC CRL 1420) (5×10^6 cells/200 μl) were transplanted subcutaneously under the armpit of BALB/cAJcl nu/nu mice (CLEA Japan, Inc.) . After feeding for about 2-3 weeks, those of which cancer grew to about 100 mm^3 were selected and employed as the subject mice to be treated.
The subject mice of treatment were divided into 4 groups, that is, (a) an untreated group, (b) a group administered gemcitabine, (c) a group administered a Burdock Fruit extract, and (d) a group administered in combination with a Burdock Fruit extract and gemcitabine (combined administration group), and the treatment was continued for 4 weeks. The Burdock Fruit extract, 250 mg/kg prepared in Example 1 (25 mg/kg or more as arctigenin), was orally administered everyday (for 5 times a week). As gemcitabine, an intravenous drip preparation of gemcitabine (Eli Lilly and Co.) was used, and 150 mg/kg was intraperitoneally given twice a week.
The cancer cells were recovered from the tumor tissue after termination of the treatment test, and using the triple positive markers, CD24, CD44 and ESA (CD326) as well as the double positive markers, CD133 and CD44, and the proportion of CD44^+, CD24^+, CD326^+ cells (triple positive) and CD133^+, CD44^+ cells (double positive) was evaluated. In the evaluation, a FACS ARIA II flow cytometer (BD bioscience) was used.

[5] = test system: Human pancreas cancer cells Miapaca-2 cells; assay: Survival in orthotopic graft model of pancreas cancer (Test Example 4); format: in vivo, mice
Experimental: Human pancreas cancer cells Miapaca-2 cells were suspended in a highly concentrated Matrigel solution (BD bioscience) at 5×10^6 cells/50 μl. A female BALB/cAJcl-nu/nu mice (8 weeks of age) (CLEA Japan, Inc.) were subjected to laparotomy under anesthesia, the above-prepared cell suspension was poured into pancreatic tissue and solidified, followed by suture and closing.
The mice after transplantation were divided into 4 groups (7 mice in one group), that is, an untreated group (Non treat); a group to which 250 mg/kg of Burdock Fruit extract (Kracie Pharm., GBS-01) containing 10% of arctigenin was orally administered every day (GBS-01); a group which was intraperitoneally given 150 mg/kg of gemcitabine (Eli Lilly & Co.) twice a week (Gemcitabine); and a group of combined administration of them(Combination), and the treatment was continued until all of the mice died.
The survival rate was calculated according to the Kaplan-Mayer method by making a curve of survival rate and calculating the median of survival rate (MST) (GraphPad-PRISM 6.2, MDF Co.). The significant difference was evaluated by means of Logrank (Mantel-COX) and Gehan-Breslow-Wilcoxon test. The calculated results were shown on an upper graph of FIG. 5.

[6] = Toxicity test by concomitant repeated-dose administration (Test Example 8); format: in vivo, mice; settings: after 7 weeks
Experimental: SIX SCR-ICR mice (female of 6 weeks of age) (SLC Co.) were used in each of 4 groups, that is, (a) untreated group, (b) gemcitabine administered group, (c) Burdock Fruit extract administered group, and (d) group of combined administration of Burdock Fruit extract and gemcitabine (combined administration group). In each group, each of the therapeutic agents was administered continuously for a period of 7 weeks.
Burdock Fruit extract, 250 mg/kg prepared in Example 1 (25 mg/kg as arctigenin) , was orally administered 5 times a week. As gemcitabine, an intravenous drip preparation of gemcitabine (Eli Lilly and Co.) was used, and 100 mg/kg was intraperitoneally administered once a week.
During the term of administration for about 7 weeks, measurement of body weight, observation of skin and oral state, as well as observation of feces were practiced every 5 days. As a result, there was recognized no symptom which reminded any side effect such as inflammation in skin and mucous membrane, depilation or diarrhea in all of the administered groups. In addition, generally there was no difference of significance in body weight which is an indicator of nausea, loss of appetite, side effect in digestive system, and the like.
After termination of administration, the mice were anesthetized deeply, subjected to thoracotomy and complete blood drawing from heart. In addition, kidney, liver, spleen and lung were recovered, the weight was measured.
In addition, a hemocytic and biochemical examination was carried out using the collected blood.

[7] = test system: tumor tissue; assay: Occurrence of ulcer in the tumor tissue (Test Example 2); format: in vivo; settings: rate of mice which generated ulcer in the tumor; administration over 5 weeks
Excerpt: In the course of the growth of tumor, nutrition and oxygen have to be supplied over the grown entire tumor tissue through the blood vessels. In most of tumor, however, it is considered that these are not supplied sufficiently because of immature angioplasty to cause a partial necrosis of tissue and an ulcerous portion occurs. In this situation, in order to inspect the effect of normalization of intra-tumor blood stream by the above described Burdock Fruit extract, the occurrence of ulcer in the tumor tissue after the respective treatments was observed.
(§2) For tumor tissue, a single administration of a Burdock Fruit extract, a single administration of bevacizumab and a combined administration of a Burdock Fruit extract and bevacizumab were performed over a period of 5 weeks. […] Thus, the suppression effect on ulcer generation in tumor was recognized in the Burdock Fruit extract-administered group and the concomitantly administered group compared with that in the untreated group and the bevacizumab-administered group. In the bevacizumab-administered group, the inhibitory effect for ulcer generation was recognized in comparison with the untreated group, though it was temporal. This effect is considered to be an inhibitory activity of bevacizumab for angiogenesis. […]

[8] = test system: tumor tissue; assay: Survival period after 5 weeks of treatment (Test Example 2); format: in vivo, mice; settings: treatment terminated after 5 weeks, survival followed up
Experimental: as §2, with “angiogenesis. On the other hand, when the combined administration of a Burdock Fruit extract in addition to bevacizumab, the inhibitory effect on ulcer generation was raised. This is considered that, in addition to the improved effect for blood stream in tumor by a single preparation of bevacizumab, the blood stream was further improved by combined administration of a Burdock Fruit extract which suppressed an occurrence of a hypoxia and undernutritional region and further suppressed angiogenesis. Thus, since the combined administration of arctigenin can markedly reduce a hypoxia and undernutritional region, it is expected to suppress the malignant transformation of cancer.” for “angiogenesis.”

[9] = test system: Human colorectal cancer cells LS174T; assay: Tumor weight in mice transplanted subcutaneously with LS174T (Test Example 7); format: in vivo; settings: after 4 weeks; extract 250 mg/kg oral 6 times a week, bevacizumab 5 mg/kg i.p. once a week
Experimental: (§3) On the 14th day, the transplanted mice were divided into 4 groups, that is, (a) an untreated group, (b) a bevacizumab-administered group, (c) a Gogoshi extract-administered group, and (d) a group of combined administration of a Burdock Fruit extract and bevacizumab (combined administration group), and the treatment was continued for 4 weeks. When a Burdock Fruit extract was administered, 250 mg/kg of Burdock Fruit extract (25 mg/kg as arctigenin) of Example 1 was orally administered 6 times a week. Bevacizumab, as Avastin for intravenous drip injection (100 mg/4 ml) (Chugai Pharm. Co.), was intraperitoneally injected at a dose of 5 mg/kg once a week.
After termination of the therapeutic test, the tumor weight was measured in the respective groups. As results, the tumor weight after termination of the therapeutic test was as follows: 2.51 g in the untreated group, 1.33 g in the bevacizumab administered group, 1.25 g in the Burdock Fruit extract administered group, and 0.68 g in the combined administration group. Accordingly, in any group including the bevacizumab administered group, the Burdock Fruit extract administered group and the combined administration group, the inhibition of increase of tumor weight was recognized compared with the untreated group. […]

[10] = test system: Human colorectal cancer cells LS174T; assay: Proportion of cancer stem cells in tumor by flow cytometry, LS174T (Test Example 7); format: in vivo, mice; settings: after termination of the treatment test (4 weeks)
Experimental: as §3
The cancer cells were then recovered from the tumor tissue, and using the double positive markers, CD133 and CD44, the proportion of CD133^+, CD44^+ cells in tumor after termination of the treatment test was evaluated by means of a FACS ARIA II flow cytometer (BD bioscience).

[11] = gemcitabine 100 mg/kg i.p. once a week

Row | Compound | average tumor size [1] [mm^2] | increase of signal intensity in the central part of tumor tissue (in words) [2] | tumor weight [3] [g] | ratio of CD133+, CD44+ cells (double positive) in tumor [4] [%] | ratio of CD44+, CD24+, CD326+ cells (triple positive) in tumor ([4]; average of 4 samples) [%] | median of survival time (MST) ([5]; GBS-01 250 mg/kg oral every day, gemcitabine 150 mg/kg i.p. twice a week, until all mice died) [days] | prolongation of MST ([5]; against the untreated group (65 days)) [%] | hematocrit value (in words) [6] | hemoglobin value (in words) [6] | weight/body weight rate (%) of liver, lowering compared with the untreated group [6, 11] | weight/body weight rate (%) of spleen, lowering compared with the untreated group [6, 11] | number of erythrocytes compared with the untreated group ([6]; value as % of untreated) | number of leukocytes compared with the untreated group ([6]; value as % of untreated) | number of platelets compared with the untreated group ([6]; value as % of untreated) | ALT, rise compared to the untreated group ([6]; hepatopathy marker) [%] | AST, rise compared to the untreated group ([6]; hepatopathy marker) [%] | duration until the generation of ulcer reached 50% [7] [days] | 50% survival period [8] [days] | tumor weight [9] [g] | proportion of CD133+, CD44+ cells (double positive) in tumor [10] [%]
1 | Nc1ccn([C@@H]2O[C@H](CO)[C@@H](O)C2(F)F)c(=O)n1 [gemcitabine] | 68 | no increase | 1.24 | 3.5 | 1.6 | 86 | 32.3 | lowering | lowering | about 20% | about 20% | approximately 87% | approximately 50% | approximately 70% | 102 | 46 |  |  |  | 
2 | bevacizumab | 56 | tendency of increasing |  |  |  |  |  |  |  |  |  |  |  |  |  |  | 10 | 107 | 1.33 | 0.552
